The values below come from ChEMBL document CHEMBL1201862, “PubChem BioAssay data set” (2004).

The target in assay [1] is Bifunctional protein GlmU (Mycobacterium tuberculosis, UniProt P9WMN3). The assay can be described thus: Inhibitors of Mycobacterial Glucosamine-1-phosphate acetyl transferase (GlmU). Secondary screen. Further details: species or system Mycobacterium tuberculosis H37Rv.
The target of assay [2] is Proto-oncogene tyrosine-protein kinase ROS (Homo sapiens, UniProt P08922). The class given is functional.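 Further: ROS1 tested as one member of a kinome-wide kinase panel.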
Chain of Proto-oncogene tyrosine-protein kinase ROS (P08922 whole entry): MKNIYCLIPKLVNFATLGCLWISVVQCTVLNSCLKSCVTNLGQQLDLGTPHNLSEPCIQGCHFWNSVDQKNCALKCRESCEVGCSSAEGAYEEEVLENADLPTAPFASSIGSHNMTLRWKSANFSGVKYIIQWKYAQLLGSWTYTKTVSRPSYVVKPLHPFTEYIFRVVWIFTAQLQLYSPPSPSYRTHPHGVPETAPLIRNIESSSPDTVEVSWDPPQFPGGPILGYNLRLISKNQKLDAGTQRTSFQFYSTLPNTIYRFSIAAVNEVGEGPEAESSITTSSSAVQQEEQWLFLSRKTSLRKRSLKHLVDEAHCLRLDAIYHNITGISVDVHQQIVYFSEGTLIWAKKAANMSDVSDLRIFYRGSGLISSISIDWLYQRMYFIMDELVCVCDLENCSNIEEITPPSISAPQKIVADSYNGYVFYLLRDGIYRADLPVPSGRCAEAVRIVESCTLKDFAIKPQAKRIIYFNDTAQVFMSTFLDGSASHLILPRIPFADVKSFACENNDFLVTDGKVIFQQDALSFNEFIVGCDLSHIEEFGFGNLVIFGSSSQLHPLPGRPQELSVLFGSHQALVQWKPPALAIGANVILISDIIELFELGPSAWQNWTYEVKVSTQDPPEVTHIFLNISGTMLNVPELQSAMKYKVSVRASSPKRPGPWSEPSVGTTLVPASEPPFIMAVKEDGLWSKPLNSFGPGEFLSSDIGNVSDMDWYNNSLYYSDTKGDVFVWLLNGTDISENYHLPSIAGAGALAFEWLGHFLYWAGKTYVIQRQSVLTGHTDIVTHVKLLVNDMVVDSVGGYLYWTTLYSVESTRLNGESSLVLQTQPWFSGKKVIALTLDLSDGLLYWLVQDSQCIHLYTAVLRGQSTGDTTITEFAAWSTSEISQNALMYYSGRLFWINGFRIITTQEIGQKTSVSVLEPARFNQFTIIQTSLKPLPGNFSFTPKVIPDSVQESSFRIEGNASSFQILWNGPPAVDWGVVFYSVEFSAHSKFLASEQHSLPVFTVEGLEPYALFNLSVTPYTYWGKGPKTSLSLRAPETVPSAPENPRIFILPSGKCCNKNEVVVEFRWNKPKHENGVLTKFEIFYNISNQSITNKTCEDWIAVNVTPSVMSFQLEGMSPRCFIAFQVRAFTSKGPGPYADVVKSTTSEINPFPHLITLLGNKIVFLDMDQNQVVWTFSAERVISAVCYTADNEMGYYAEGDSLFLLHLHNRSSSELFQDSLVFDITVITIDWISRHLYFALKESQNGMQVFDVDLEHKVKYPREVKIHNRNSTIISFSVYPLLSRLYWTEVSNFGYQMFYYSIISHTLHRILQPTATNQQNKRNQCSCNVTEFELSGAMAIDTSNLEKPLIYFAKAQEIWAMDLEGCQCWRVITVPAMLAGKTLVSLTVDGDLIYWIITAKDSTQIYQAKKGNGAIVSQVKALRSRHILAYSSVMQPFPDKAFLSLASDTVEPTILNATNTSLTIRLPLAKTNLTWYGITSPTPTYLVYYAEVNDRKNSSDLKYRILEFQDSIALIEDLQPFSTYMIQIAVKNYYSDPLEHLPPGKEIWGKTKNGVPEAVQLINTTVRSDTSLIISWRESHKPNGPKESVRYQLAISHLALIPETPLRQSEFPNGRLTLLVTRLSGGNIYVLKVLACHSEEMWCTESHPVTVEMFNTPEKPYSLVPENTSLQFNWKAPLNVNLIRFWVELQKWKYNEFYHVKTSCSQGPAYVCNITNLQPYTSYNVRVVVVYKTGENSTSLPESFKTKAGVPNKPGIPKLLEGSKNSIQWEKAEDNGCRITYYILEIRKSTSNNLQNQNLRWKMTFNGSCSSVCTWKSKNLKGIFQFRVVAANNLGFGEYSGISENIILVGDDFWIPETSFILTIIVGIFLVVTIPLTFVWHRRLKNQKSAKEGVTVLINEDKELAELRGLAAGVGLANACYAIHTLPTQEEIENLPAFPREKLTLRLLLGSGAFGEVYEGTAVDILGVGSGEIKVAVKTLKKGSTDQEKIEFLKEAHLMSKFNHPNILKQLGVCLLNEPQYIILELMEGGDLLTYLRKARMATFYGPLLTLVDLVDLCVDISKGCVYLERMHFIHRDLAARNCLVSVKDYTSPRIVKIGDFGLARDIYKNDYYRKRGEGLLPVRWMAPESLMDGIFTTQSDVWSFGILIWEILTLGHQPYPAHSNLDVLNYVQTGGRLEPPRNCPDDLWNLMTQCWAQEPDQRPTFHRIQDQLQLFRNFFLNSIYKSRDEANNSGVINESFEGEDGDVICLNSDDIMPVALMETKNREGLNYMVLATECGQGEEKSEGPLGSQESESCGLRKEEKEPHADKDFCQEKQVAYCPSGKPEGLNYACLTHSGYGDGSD
Assay [3] deals with Non-receptor tyrosine-protein kinase TYK2 (Homo sapiens, UniProt P29597). It counts as functional.
In assay [4] the target is Receptor tyrosine-protein kinase erbB-2 (Homo sapiens, UniProt P04626). The assay can be described thus: Navigating the Kinome. Panel member name: ERBB2. The class given is functional.
Chain of Receptor tyrosine-protein kinase erbB-2 (P04626 whole entry): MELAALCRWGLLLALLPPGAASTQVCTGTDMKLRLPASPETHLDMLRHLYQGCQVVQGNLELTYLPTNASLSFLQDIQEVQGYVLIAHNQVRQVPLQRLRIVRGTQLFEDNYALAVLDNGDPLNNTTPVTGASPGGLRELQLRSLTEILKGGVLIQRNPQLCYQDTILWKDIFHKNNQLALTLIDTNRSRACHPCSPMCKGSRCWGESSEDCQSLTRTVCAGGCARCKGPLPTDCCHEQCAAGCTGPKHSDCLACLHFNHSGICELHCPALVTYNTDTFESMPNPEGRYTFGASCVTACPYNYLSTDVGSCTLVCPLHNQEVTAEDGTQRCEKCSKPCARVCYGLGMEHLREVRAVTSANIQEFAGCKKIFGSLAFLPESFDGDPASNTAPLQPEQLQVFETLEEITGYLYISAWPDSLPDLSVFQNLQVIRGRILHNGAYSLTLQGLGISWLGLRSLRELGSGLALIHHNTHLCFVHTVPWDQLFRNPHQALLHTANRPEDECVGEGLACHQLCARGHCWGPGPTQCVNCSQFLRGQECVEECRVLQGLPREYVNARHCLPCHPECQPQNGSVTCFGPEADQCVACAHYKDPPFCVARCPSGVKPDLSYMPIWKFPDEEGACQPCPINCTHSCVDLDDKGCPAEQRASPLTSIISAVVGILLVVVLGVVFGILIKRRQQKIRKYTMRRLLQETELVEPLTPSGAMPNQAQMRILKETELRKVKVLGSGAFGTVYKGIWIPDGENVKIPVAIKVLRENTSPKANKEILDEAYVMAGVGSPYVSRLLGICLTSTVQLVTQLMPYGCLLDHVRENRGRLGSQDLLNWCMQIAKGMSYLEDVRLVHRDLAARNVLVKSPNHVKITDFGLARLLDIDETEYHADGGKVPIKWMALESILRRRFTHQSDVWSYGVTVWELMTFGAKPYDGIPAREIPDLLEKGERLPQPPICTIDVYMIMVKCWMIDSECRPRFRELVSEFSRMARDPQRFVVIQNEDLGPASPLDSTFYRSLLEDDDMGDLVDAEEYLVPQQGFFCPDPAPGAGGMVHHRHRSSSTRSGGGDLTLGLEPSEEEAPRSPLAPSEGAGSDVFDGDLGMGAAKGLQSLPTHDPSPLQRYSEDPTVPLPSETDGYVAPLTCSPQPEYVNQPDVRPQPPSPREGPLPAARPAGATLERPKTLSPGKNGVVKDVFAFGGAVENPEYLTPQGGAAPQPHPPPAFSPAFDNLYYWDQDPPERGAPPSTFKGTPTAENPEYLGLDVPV
In assay [5] the target is Mitogen-activated protein kinase 9 (Homo sapiens, UniProt P45984). The class given is functional.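 Further: value from a kinome panel profiling assay, MAPK9 panel entry.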
Chain of Mitogen-activated protein kinase 9 (P45984 whole entry): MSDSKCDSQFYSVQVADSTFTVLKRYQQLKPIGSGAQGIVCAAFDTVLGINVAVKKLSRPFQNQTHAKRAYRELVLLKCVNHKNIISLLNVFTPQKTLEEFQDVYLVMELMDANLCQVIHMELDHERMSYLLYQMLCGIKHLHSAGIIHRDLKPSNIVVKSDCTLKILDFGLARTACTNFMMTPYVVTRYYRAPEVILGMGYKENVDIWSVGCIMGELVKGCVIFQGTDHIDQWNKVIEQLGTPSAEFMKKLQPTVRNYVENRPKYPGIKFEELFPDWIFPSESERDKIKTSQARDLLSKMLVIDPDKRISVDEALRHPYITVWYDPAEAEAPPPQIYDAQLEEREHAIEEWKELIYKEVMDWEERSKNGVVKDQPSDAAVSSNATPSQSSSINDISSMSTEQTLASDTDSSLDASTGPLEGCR
For assay [6], the target named is Tyrosine-protein kinase JAK2 (Homo sapiens, UniProt O60674). It counts as functional.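 Further: JAK2 tested as one member of a kinase panel.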
Assay [7] addresses Inhibitor of nuclear factor kappa-B kinase subunit epsilon (Homo sapiens, UniProt Q14164). The assay is described as follows: Navigating the Kinome. Panel member name: IKBKE. It counts as functional.
Assay [8] concerns the target Casein kinase II subunit alpha (Homo sapiens, UniProt P68400). It counts as functional.

Active and inactive are the calls of the source.

Chain of Inhibitor of nuclear factor kappa-B kinase subunit epsilon (Q14164 whole entry): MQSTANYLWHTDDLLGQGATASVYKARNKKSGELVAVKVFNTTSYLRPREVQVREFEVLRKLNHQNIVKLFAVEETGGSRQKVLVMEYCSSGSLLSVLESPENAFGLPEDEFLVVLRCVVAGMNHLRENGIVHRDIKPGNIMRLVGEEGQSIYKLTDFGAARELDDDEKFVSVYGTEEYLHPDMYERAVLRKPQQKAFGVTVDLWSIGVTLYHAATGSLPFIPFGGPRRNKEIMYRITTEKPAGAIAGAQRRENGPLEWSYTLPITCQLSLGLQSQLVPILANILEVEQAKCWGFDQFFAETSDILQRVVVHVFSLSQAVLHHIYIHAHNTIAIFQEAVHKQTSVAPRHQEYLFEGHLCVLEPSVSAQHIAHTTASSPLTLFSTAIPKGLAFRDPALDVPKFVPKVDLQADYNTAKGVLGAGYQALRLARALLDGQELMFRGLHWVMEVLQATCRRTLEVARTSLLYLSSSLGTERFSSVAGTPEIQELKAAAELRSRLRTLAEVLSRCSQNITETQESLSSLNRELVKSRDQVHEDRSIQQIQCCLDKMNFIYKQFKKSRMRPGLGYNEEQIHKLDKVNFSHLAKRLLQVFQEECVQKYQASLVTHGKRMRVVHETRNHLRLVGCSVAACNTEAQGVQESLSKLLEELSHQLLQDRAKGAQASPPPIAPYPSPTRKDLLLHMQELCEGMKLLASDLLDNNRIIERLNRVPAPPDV

As for `O=C1NC(=S)S/C1=C\C=C\c1ccc([N+](=O)[O-])o1`, in assay [1], the 50% inhibitory concentration (IC50) was 19.1 µM (active).

For `Nc1noc2cccc(-c3cccc(O)c3)c12`, the Ki was > 2 µM (inactive) in assay [2]; > 2 µM (inactive) in assay [3]; > 1.58 µM (inactive) in assay [4]; > 3.98 µM (inactive) in assay [5]; > 1.58 µM (inactive) in assay [6]; 39.8 µM (active) in assay [7]. Moreover, in assay [8], the Ki is > 6.31 µM (inactive).
